{"source": "paper PMC8587515", "about": "“Cytotoxic and Anti-Inflammatory Activities of Dihydroisocoumarin and Xanthone Derivatives from Garcinia picrorhiza” (Molecules, 2021)", "key": {"[1]": {"system": "Hep G2 (human hepatocellular carcinoma)", "set-up": "method as in PMID 30153471, PMID 33999337", "settings": "MTT; results based on previous work; read-out: IC50 ± SEM, Hep G2; cited from earlier work"}, "[2]": {"test": "Cytotoxicity (XTT cell viability), BV-2", "type": "cell-based", "settings": "mouse, BV-2 microglial cells, LPS/IFN-γ-stimulated, LPS-IFN-γ-induced cells, mean ± SEM (n = 6)", "protocol": "(§1) Compounds 1–8 were screened for their inhibitory effects on nitric oxide production in LPS-IFN-γ activated RAW 264.7 macrophages and BV-2 microglial cells at a final concentration of 50 µM. […] A deprenylated furanoxanthone structure with ortho hydroxy group in ring B as in 7 might be important to enhance the inhibitory effect when compared to 6 and 8.\n(§2) The iNOS inhibitory activity of the isolated compounds and respective cytotoxicity was determined using a previously described protocol. Briefly, BV-2 mouse microglial (25,000 cells/well) and RAW 264.7 mouse macrophage (100,000 cells/well) cell lines were seeded into 96-well plates in high glucose Dulbecco’s Modified Eagle’s Medium (DMEM, Gibco) containing 4 mM L-glutamine, 10% FBS, 2% HEPES, 1% penicillin/streptomycin, and 0.5% amphotericin B. After incubation for 24 h at 37 °C in a 5% CO2 humidified atmosphere, the cells were stimulated with 0.05% LPS (Sigma) and 0.025% interferon-γ (Roche Diagnostics, Mannheim, Germany) and treated with different concentrations (5–100 μM) of the tested compounds. The level of NO production in cell culture supernatants was determined using Griess reagent (Sigma) by photocolorimetric analysis after 16 h of incubation, using a Hidex Sense Microplate Reader (Hidex, Turku, Finland). Fifty microliters of XTT reagent (Sigma, Kit II) was then added into the same plates for cell viability measurement after 60 min incubation. L-NMMA (Alexis, Grünberg, Germany) 100 µM was used as the positive control, while 1% DMSO and digitonin (Roth, Karlsruhe, Germany) 400 µM were used as the vehicle and negative control, respectively. The assays were conducted in triplicates and repeated in two independent experiments. IC50 values were determined by graphical analysis using GraphPad Prism 7 (GraphPad Software, La Jolla, CA, USA)."}, "[3]": {"system": "four cancer cells (KB, HeLa S3, MCF-7, and Hep G2)", "settings": "HeLa S3, MCF-7, Hep G2, earlier studies, read-out: IC50 values against four cancer cells; cited from earlier work"}, "[4]": {"system": "MCF-7 (human breast adenocarcinoma)", "set-up": "method as in PMID 30153471, PMID 33999337", "settings": "MTT; results based on previous work; read-out: IC50 ± SEM, MCF-7; cited from earlier work"}, "[5]": {"system": "KB (human epidermoid carcinoma)", "set-up": "method as in PMID 30153471, PMID 33999337", "settings": "MTT; results based on previous work; read-out: IC50 ± SEM, KB; cited from earlier work"}, "[6]": {"system": "HeLa S3 (human cervical carcinoma)", "set-up": "method as in PMID 30153471, PMID 33999337", "settings": "MTT; results based on previous work; read-out: IC50 ± SEM, HeLa S3; cited from earlier work"}, "[7]": {"system": "HT-29 (human colon adenocarcinoma)", "set-up": "method as in PMID 30153471, PMID 33999337; key to IC50 ± SEM, HT-29: IC50 ≤ 10 µM = good cytotoxicity; 10 µM < IC50 ≤ 30 µM = weak cytotoxicity; inactive (IC50 > 30 µM)", "settings": "MTT; results based on previous work; cited from earlier work"}, "[8]": {"system": "NO production in LPS-IFN-γ-induced RAW 264.7 macrophages", "test": "NO production inhibition assay (Griess), RAW 264.7", "type": "cell-based, mouse", "settings": "for IC50: Mus musculus, RAW264.7, LPS-IFN-γ-induced, 16 h, mean ± SEM (n = 6), read-out: IC50, iNOS (inhibition of NO production), RAW 264.7; for suppression of NO production, RAW 264.7: final concentration of 50 µM, preliminary screen", "protocol": "as §1, §2"}, "[9]": {"system": "HeLa S3 (human cervical carcinoma)", "test": "MTT cytotoxic activity assay, HeLa S3", "type": "cell-based", "settings": "72 h, mean ± SEM of three replicates", "protocol": "(§3) The cytotoxic activity of the isolated compounds was evaluated using the MTT viability assay with doxorubicin as the positive control and the results are presented in Table 2.\n(§4) The MTT colorimetric method was performed to evaluate cytotoxic activity of the isolated compounds against human epidermoid carcinoma (KB; ATCC CCL17), human cervical carcinoma (HeLa S3; ATCC CCL2-2), human colon adenocarcinoma (HT-29; ATCC HTB-38), human breast adenocarcinoma (MCF-7; ATCC HTB-22), and human hepatocellular carcinoma (Hep G2; ATCC HB-8065) cell lines according to the previous method. The cancer cells were cultured in MEM containing 10% fetal bovine serum in the presence of 100 U/mL penicillin and 100 μg/mL streptomycin sulphate (Gibco, Rockville, MD, USA), seeded in a 96-well plate (3000 cells/well), and pre-incubated at 37 °C for 24 h in a 5% CO2 humidified atmosphere. The tested compounds with serial concentrations (0.3–100 μM) were added and incubated for a further 72 h in the same condition. At the end of treatment, 20 µL of MTT solution (5 mg/mL in PBS, Sigma, St. Louis, MI, USA) was added to each well and further incubated for 3 h. After centrifugation at 1400 rpm for 5 min at 4 °C, the supernatant was decanted and DMSO (100 µL/well) was added to allow formazan product solubilization, which was subsequently measured by a microplate reader (Tecan Trading AG, Switzerland) at wavelength 550 nm. Control cells were treated with 0.1% DMSO. Doxorubicin (tested concentrations: 0.01–3.0 μM, Sigma) was used as the positive control. The results are expressed as the mean values of three replicates for three independent experiments. IC50 values were determined by graphical analysis using SigmaPlot 10 (Systat Software Inc., San Jose, CA, USA), obtained by plotting the cell viability percentage versus sample concentration."}, "[10]": {"system": "HT-29 (human colon adenocarcinoma)", "test": "MTT cytotoxic activity assay, HT-29", "type": "cell-based", "settings": "72 h, mean ± SEM of three replicates", "protocol": "as §3\n(§5) The MTT colorimetric method was performed to evaluate cytotoxic activity of the isolated compounds against human epidermoid carcinoma (KB; ATCC CCL17), human cervical carcinoma (HeLa S3; ATCC CCL2-2), human colon adenocarcinoma (HT-29; ATCC HTB-38), human breast adenocarcinoma (MCF-7; ATCC HTB-22), and human hepatocellular carcinoma (Hep G2; ATCC HB-8065) cell lines according to the previous method. […] After centrifugation at 1400 rpm for 5 min at 4 °C, the supernatant was decanted and DMSO (100 µL/well) was added to allow formazan product solubilization, which was subsequently measured by a microplate reader (Tecan Trading AG, Switzerland) at wavelength 550 nm. […] The results are expressed as the mean values of three replicates for three independent experiments. IC50 values were determined by graphical analysis using SigmaPlot 10 (Systat Software Inc., San Jose, CA, USA), obtained by plotting the cell viability percentage versus sample concentration."}, "[11]": {"system": "KB (human epidermoid carcinoma)", "test": "MTT cytotoxic activity assay, KB", "type": "cell-based", "settings": "72 h, mean ± SEM of three replicates", "protocol": "as §3, §4"}, "[12]": {"system": "four cancer cells (KB, HeLa S3, MCF-7, and Hep G2)", "test": "MTT cytotoxicity, four cancer cells stated together", "type": "cell-based", "settings": "Homo sapiens; range over KB, HeLa S3, MCF-7, Hep G2; read-out: IC50 values against four cancer cells", "protocol": "as §3, §5"}, "[13]": {"system": "MCF-7 (human breast adenocarcinoma)", "test": "MTT cytotoxic activity assay, MCF-7", "type": "cell-based", "settings": "MCF7, 72 h, mean ± SEM of three replicates", "protocol": "as §3, §5"}, "[14]": {"system": "Hep G2 (human hepatocellular carcinoma)", "test": "MTT cytotoxic activity assay, Hep G2", "type": "cell-based", "settings": "HepG2, 72 h, mean ± SEM of three replicates", "protocol": "as §3, §5"}}, "note": "Where two headings read alike, the source gives them in different places.", "data": [{"smiles": "C[C@@H]1Oc2cc(O)c3c(=O)c4ccc(O)c(O)c4oc3c2C1(C)C", "note": "[Compound 7, 2-deprenylrheediaxanthone B]", "values": [{"measurement": "IC50", "setting": "[1]", "value": "10 ± 0.2", "unit": "µM"}, {"measurement": "IC50 at 16 h", "setting": "[2]", "value": "31.7 ± 4.7", "unit": "µM"}, {"measurement": "IC50", "setting": "[3]", "value": "< 10", "unit": "µM"}, {"measurement": "IC50", "setting": "[4]", "value": "6.5 ± 0.2", "unit": "µM"}, {"measurement": "IC50", "setting": "[5]", "value": "5.1 ± 0.4", "unit": "µM"}, {"measurement": "IC50", "setting": "[6]", "value": "6 ± 0.5", "unit": "µM"}, {"measurement": "IC50 ± SEM, HT-29", "setting": "[7]", "value": "inactive"}, {"measurement": "IC50", "setting": "[8]", "value": "45.6 ± 6.5", "unit": "µM"}, {"measurement": "suppression of NO production, RAW 264.7", "setting": "[8]", "value": "over 70%"}]}, {"smiles": "C[C@H]1Oc2c(c(O)c3c(=O)c4ccc(O)c(O)c4oc3c2CCC(C)(C)O)C1(C)C", "note": "[Compound 4, gerontoxanthone C hydrate]", "values": [{"measurement": "IC50", "setting": "[9]", "value": "5.6 ± 0.1", "unit": "µM"}, {"measurement": "IC50", "setting": "[10]", "value": "20.3 ± 0.6", "unit": "µM"}, {"measurement": "IC50 at 16 h", "setting": "[2]", "value": "27.7 ± 6.4", "unit": "µM"}, {"measurement": "IC50", "setting": "[11]", "value": "7.5 ± 0.8", "unit": "µM"}, {"measurement": "IC50", "setting": "[12]", "value": "5.6 to 7.5", "unit": "µM"}, {"measurement": "IC50", "setting": "[13]", "value": "5.7 ± 0.3", "unit": "µM"}, {"measurement": "IC50", "setting": "[14]", "value": "6.3 ± 0.6", "unit": "µM"}, {"measurement": "IC50", "setting": "[8]", "value": "84.3 ± 3.5", "unit": "µM"}, {"measurement": "suppression of NO production, RAW 264.7", "setting": "[8]", "value": "over 70%"}]}]}
